Holding throughout (type): in vivo
Series [1] is described as follows: Body weight / tolerability in T84 tumor-bearing nude mice. To be noted: T84 study; 28-days TMZ cycle. The protocol:
(§1) Tumor volumes (TVol), determined from caliper measurements (using the formula I*w2*TT/6) were measured two times per week. Tumor response was quantified by the change in tumor volume (endpoint minus starting value in mm^3) as the T/C. In the case of a tumor regression or to assess the percentage of change in TVol, the tumor response was quantified by the percentage of regression of the starting TVol. The body-weight (BW) of the animal was measured three times per week allowing calculation at any particular time-point relative to the day of initiation of treatment (day 0) of the percentage change in BW (4% BW).

A short description of series [2]: Body weight / tolerability in SHP-77 tumor-bearing nude mice. To be noted: SHP-77 study; single agent. Here is the method: as §1
Series [3] in a line: Body weight / tolerability in SW620 tumor-bearing nude mice. To be noted: SW620 study; 21-days TMZ cycle. The protocol:
as §1, with “I*w2*π/6)” for “I*w2*TT/6)”, “T/C (the ratio between the tumor volume in the treated group and in the untreated control group).” for “T/C.”

Series [4] has as its system SHP-77 (CRL-2195, ATCC) MSS small cell lung carcinoma xenografts. Briefly: SHP-77 MSS SCLC xenograft efficacy in nude mice. To be noted: SHP77; TMZ 25 mg/kg p.o. 5 consecutive days within 28 days cycle. Here is the method: SHP-77 (CRL-2195, ATCC) is a MSS small cell lung carcinoma (SCLC). It was cultured in RPMI 1640 Medium, GlutaMAX™ (#61870036, GIBCO) supplemented with 10% FCS (#2-O-1F30-I, BioConcept). Cells were passaged by washing first with Dulbecco's PBS without Ca^2+/Mg^2+ (#3-05F29-1, AMIMED), trypsinising cells with Trypsin 0.05% in PBS with EDTA (#5-51F00-H, AMIMED), centrifuging in the respective culture media, and splitting cells into fresh media at a ratio of 1:8, 2 times per week.
Athymic nude mice (Charles River, Germany) were allowed to adapt for 7 days upon arrival at the animal facility and housed in a pathogen-controlled environment (5 mice/Type III cage) with access to food and water ad libitum. Animals were identified with transponders. […]
as §1

Series [5] relates to SW620 (CCL-227, ATCC) MSS colorectal carcinoma xenografts. The experiment in a line: SW620 MSS CRC xenograft efficacy in nude mice. To be noted: SW620; TMZ p.o. 5 consecutive days within 21 days cycle (100 mg/kg). Here is the method: SW620 (CCL-227, ATCC) [MSS colorectal carcinoma (CRC)] was cultured in DMEM (#1-26F01-I, AMIMED) supplemented with 10% FCS (#2-0-1F30-I, BioConcept), 4 mM L-glutamine (#5-10K50-H, BioConcept) and 1 mM Sodium pyruvate (#5-60F00-H, BioConcept). Cells were passaged by washing first with Dulbecco's PBS without Ca^2+/Mg^2+ (#3-05F29-1, AMIMED), trypsinising cells with Trypsin 0.05% in PBS with EDTA (#5-51F00-H, AMIMED), centrifuging in the respective culture media, and splitting cells into fresh media at a ratio of 1:8, 2 times per week.
Athymic nude mice (Charles River, Germany) were allowed to adapt for 7 days upon arrival at the animal facility and housed in a pathogen-controlled environment (5 mice/Type III cage) with access to food and water ad libitum. Animals were identified with transponders. Studies described in this report were performed according to procedures covered by a permit number issued by the Kantonales Veterinäramt Basel-Stadt.
Subcutaneous tumors were initiated by injecting 5.0×10^6 SW620 tumor cells in 50% Matrigel (#354234, Corning) in HBSS (#H6648, SIGMA) in the right flank of nude mice. The efficacy experiment (n=6), started 11 days post-cell injection.
Compound A and Temozolomide were made-up fresh on a weekly basis and kept at 4° C. and protected from light. Compound A was dissolved in 20% Hydroxypropyl-ß-Cyclodextrine (HP-ß-CD, #H107-100G, SIGMA) in UltraPure™ Water (#10977-035, Invitrogen) and administered p.o. at 10 ml/kg. Temozolomide was dissolved in 30% PEG-400 (#202398-500G, SIGMA) and 70% Dulbecco's PBS without Ca^2+/Mg^2+ (#3-05F29-1, AMIMED) and administered p.o. at 10 mL/kg on 5 consecutive days within a 21 days cycle. Irinotecan was made-up fresh for each treatment once a week by diluting with NaCl 0.9% (#3-06S00-I, BioConcept). The solution was administered i.v. at 5 mL/kg.
as §1, with “I*w2*π/6)” for “I*w2*TT/6)”, “T/C (the ratio between the tumor volume in the treated group and in the untreated control group).” for “T/C.”
At day 43 post-cell injection, irinotecan was administered intravenously at 15 mg/kg once weekly for 7 weeks in combination with Compound A, also administered from day 43, orally at 120 mg/kg daily for 52 days.
Starting 11 days post-cell injection, temozolomide was administered orally on a 21 day cycle of 5 consecutive days at 100 mg/kg on 5 consecutive days (day 11 to day 15 and day 32 to day 36). At day 43 post-cell injection, to the first group irinotecan was administered intravenously at 15 mg/kg once weekly for 6 weeks, and to the second group irinotecan was administered intravenously at 15 mg/kg once weekly for 6 weeks in combination with Compound A, also administered from day 43, orally at 120 mg/kg daily for 46 days.

Values joined by “and” are separate entries in the source; they are usually repeats but may differ in a detail not shown here. Equal entries are not always repeated.

In the case of `Cn1nnc2c(C(N)=O)ncn2c1=O` [temozolomide], the body weight change result in series [1] is “slight body weight loss but mice always recovered at the end of the 28-days cycle”; in series [3], “dose-dependent body weight loss but mice always recovered at the end of the 21-days cycle”. Further, the tolerability entry in series [2] is “well tolerated”. The “tumor regression after 2 cycles” value in series [4] stood at 90%. Besides, the “tumor regression after 1 cycle of temozolomide” value in series [5] is 30-50% and 40%.

The values above are taken from US20240197715A1, “PHARMACEUTICAL COMBINATIONS AND USES THEREOF” (NOVARTIS AG, priority 2022, published 2024).
